The values that follow come from patent US4451476A (priority 1983, dated 1984).

≈ marks a conversion by molar mass, not a printed value. Entries after “also recorded” stand apart in the source; their conditions may differ.

One assay has as its system rhinovirus Type 2. Nature of the assay: microbe, parasite or virus in culture. Conditions: for MIC: Enterovirus, read-out: MIC vs. rhinovirus Type 2 in vitro. In kind it is cell-based.
Assay [1] relates to poliovirus. The experiment in a line: animal or person. In kind it is in vivo, mice.
In another assay the test system is Polio-3. Nature of the assay: microbe, parasite or virus in culture. To be noted: read-out: MIC vs. Polio-3. It is filed as cell-based.
Another assay has as its system polio-2 virus. The experiment in a line: microbe, parasite or virus in culture. In kind it is cell-based. Conditions: read-out: MIC vs. polio-2 virus.
The next assay deals with Echo-9. Nature of the assay: In vitro MIC against Echo-9. In kind it is cell-based.
For assay [2], the system named is picornaviruses and enteroviruses. In kind it is cell-based.
The test system of assay [3] is poliovirus. It is filed as in vivo, mice. To be noted: parenteral medication.
The subject of assay [4] is human rhinovirus serotypes. It is filed as cell-based.
The test system of a further assay is Echo-11. The experiment in a line: microbe, parasite or virus in culture. It is filed as cell-based. Conditions: read-out: MIC vs. Echo-11.

On to `COc1ccc(OCCCCCCCc2cc(C)no2)c(Cl)c1` [Example 2, 5-[7-(2-Chloro-4-methoxyphenoxy)heptyl]-3-methylisoxazole], for which the “times as active in vitro against rhinovirus Type 2 as the corresponding 2-chloro-4-methoxyphenoxy compounds of U.S. Pat. No. 4,268,678” value in the assay with rhinovirus Type 2 is listed as “at least 15 times”. Also, the minimal effective dose in the assay with poliovirus [1] (Enterovirus C, in Mus musculus, po, 336 h, read-out: minimal inhibitory dose) is 31 mg/kg. The figures for the “in vivo activity against poliovirus infections in mice” value with poliovirus [1] and with poliovirus [1] (listed as 5-[7-(2-chloro-4-methoxyphenoxy)heptyl]-3-methylisoxazole) were “active in vivo” and “in vivo activity against poliovirus infections in mice”, respectively. Also, the MIC was determined as 0.08 µg/mL (≈ 0.237 µM) with Polio-3, 0.15 µg/mL (≈ 0.444 µM) with polio-2 virus, 0.15 µg/mL (≈ 0.444 µM) with Echo-9 and 0.04 µg/mL (≈ 0.118 µM) in the assay on Echo-11. The “in vitro activity against picornaviruses and enteroviruses” value in assay [2] was “in vitro activity against a variety of picornaviruses and enteroviruses; also recorded: active against other picornaviruses and enterviruses”. Moreover, the “challenge doses of poliovirus at which death was prevented” value in the assay with poliovirus [3] (mice) is given as at most 200 LD50. Further, the “prevention of death in mice infected with poliovirus” value in the assay with poliovirus [3] (challenge doses as high as 200 LD50) is “prevented death”. Also, in [4], the “human rhinovirus serotypes against which active” value is 24 of 27. Further, the “most common human rhinovirus serotypes against which active” value in assay [4] was “six of the seven”. Consider `COc1ccc(OCCCCCCc2cc(C)no2)c(Cl)c1` [Example 3, 5-[6-(2-Chloro-4-methoxyphenoxy)hexyl]-3-methylisoxazole], for which the MIC in the assay with rhinovirus Type 2 was 0.8 µg/mL (≈ 2.47 µM). Still for that read-out and setting: the same measure for `COc1ccc(OCCCCCc2cc(C)no2)c(Cl)c1` [Example 4, 5-[5-(2-Chloro-4-methoxyphenoxy)pentyl]-3-methylisoxazole]: 0.4 µg/mL (≈ 1.29 µM).

Turning to `Cc1cc(CCCCCCCOc2ccc(C#N)cc2)on1` [Example 5, 5-[7-(4-Cyanophenoxy)heptyl]-3-methylisoxazole], in the assay on rhinovirus Type 2, the “activity vs. rhinovirus Type 2 in vitro” value was “inactive”.

In the case of `Cc1cc(CCCCCCOc2ccc(C#N)cc2)on1` [Example 6, 5-[6-(4-Cyanophenoxy)hexyl]-3-methylisoxazole], in the assay with rhinovirus Type 2, the MIC was 3.1 µg/mL (≈ 10.9 µM). Consider `Cc1cc(CCCCCOc2ccc(C#N)cc2)on1` [Example 7, 5-[5-(4-Cyanophenoxy)pentyl]-3-methylisoxazole], for which the “activity vs. rhinovirus Type 2 in vitro” value in the assay with rhinovirus Type 2 was “inactive”. With `Cc1cc(CCCCCCCOc2ccc(C(=O)OC(C)(C)C)cc2)on1` [Example 8, 5-[7-(4-Tertiary-butyloxycarbonylphenoxy)heptyl]-3-methylisoxazole], the MIC in the assay on rhinovirus Type 2 is 6.2 µg/mL (≈ 16.6 µM).

`Cc1cc(CCCCCCCCOc2ccc(C#N)cc2)on1` [Example 10, 5-[8-(4-Cyanophenoxy)octyl]-3-methylisoxazole]: the “activity vs. rhinovirus Type 2 in vitro” value in the assay on rhinovirus Type 2 is “inactive”.

Regarding `Cc1cc(CCCCCCCOc2ccc(OC(C)C)cc2)on1` [Example 11, 3-Methyl-5-[7-(4-isopropoxyphenoxy)heptyl]isoxazole], the MIC in the assay on rhinovirus Type 2 is 0.65 µg/mL (≈ 1.96 µM).

With `Cc1cc(CCCCCCCOc2ccc(C(C)C)cc2)on1` [Example 12, 3-Methyl-5-[7-(4-isopropylphenoxy)heptyl]isoxazole], the MIC in the assay with rhinovirus Type 2 turned out to be 0.98 µg/mL (≈ 3.11 µM). `Cc1cc(CCCCCCCOc2ccc(Cl)cc2)on1` [Example 14, 3-Methyl-5-[7-(4-chlorophenoxy)heptyl]isoxazole]: the MIC with rhinovirus Type 2 was 1.5 µg/mL (≈ 4.87 µM); in the assay on polio-2 virus, 0.4 µg/mL (≈ 1.3 µM). On the same counts, the results for `Cc1ccc(OCCCCCCCc2cc(C)no2)c(Cl)c1` [Example 15, 5-[7-(2-Chloro-4-methylphenoxy)heptyl]-3-methylisoxazole] are 1.2 µg/mL (≈ 3.73 µM) and 0.82 µg/mL (≈ 2.55 µM). `Cc1cc(CCCCCCCOc2ccc(C(=O)O)cc2)on1` [Example 16, 5-[7-(4-Carboxyphenoxy)heptyl]-3-methylisoxazole]: in the assay on rhinovirus Type 2, the MIC is 10 µg/mL (≈ 31.5 µM). The same measure, in the same setting: the same measure for `Cc1cc(CCCCCOc2ccc(C(=O)O)cc2)on1` [Example 17, 5-[5-(4-Carboxyphenoxy)pentyl]-3-methylisoxazole]: 12.5 µg/mL (≈ 43.2 µM). Turning to `Cc1cc(CCCCCCCOc2cccc(C(=O)O)c2)on1` [Example 19, 5-[7-(3-Carboxyphenoxy)heptyl]-3-methylisoxazole], the “activity vs. rhinovirus Type 2 in vitro” value in the assay with rhinovirus Type 2 is “inactive”. Same read-out and setting: the result for `Cc1cc(CCCCCCCCOc2ccc(C(=O)O)cc2)on1` [Example 20, 5-[8-(4-Carboxyphenoxy)octyl]-3-methylisoxazole] reads “inactive”.

Turning to `CCOC(=O)c1ccc(OCCCCCCCc2cc(C)no2)cc1` [Example 22, 5-[7-(4-Ethoxycarbonylphenoxy)heptyl]-3-methylisoxazole], the MIC in the assay on rhinovirus Type 2 stood at 0.025 µg/mL (≈ 0.0724 µM).

For `CCOC(=O)c1ccc(OCCCCCc2cc(C)no2)cc1` [Example 23, 5-[5-(4-Ethoxycarbonylphenoxy)pentyl]-3-methylisoxazole], the MIC in the assay with rhinovirus Type 2 amounted to 0.015 µg/mL (≈ 0.0473 µM). In the case of `CCOC(=O)c1ccc(OCCCCCCc2cc(C)no2)cc1` [Example 24, 5-[6-(4-Ethoxycarbonylphenoxy)hexyl]-3-methylisoxazole], the MIC in the assay on rhinovirus Type 2 stood at 0.025 µg/mL (≈ 0.0754 µM). Same read-out and setting: the result for `CCOC(=O)c1ccc(OCCCCCCCCc2cc(C)no2)cc1` [Example 25, 5-[8-(4-Ethoxycarbonylphenoxy)octyl]-3-methylisoxazole] reads 0.05 µg/mL (≈ 0.139 µM); that for `CCOC(=O)c1cccc(OCCCCCCCc2cc(C)no2)c1` [Example 26, 5-[7-(3-Ethoxycarbonylphenoxy)heptyl]-3-methylisoxazole], 1.6 µg/mL (≈ 4.63 µM); that for `Cc1cc(CCCCCCCOc2ccc(C(=O)OC(C)C)cc2)on1` [Example 27, 5-[7-(4-Isopropyloxycarbonylphenoxy)heptyl]-3-methylisoxazole], 0.23 µg/mL (≈ 0.64 µM). On the same count and under the same terms, the same measure for `CCCOC(=O)c1ccc(OCCCCCCCc2cc(C)no2)cc1` [Example 28, 5-[7-(4-Propyloxycarbonylphenoxy)heptyl]-3-methylisoxazole]: 0.07 µg/mL (≈ 0.195 µM); for `COC(=O)c1ccc(OCCCCCCCc2cc(C)no2)cc1` [Example 29, 5-[7-(4-Methoxycarbonylphenoxy)heptyl]-3-methylisoxazole]: 3 µg/mL (≈ 9.05 µM). With `CCOC(=O)c1ccc(OCCCCc2cc(C)no2)cc1` [Example 30, 5-[4-(4-Ethoxycarbonylphenoxy)butyl]-3-methylisoxazole], in the assay with rhinovirus Type 2, the MIC was 3.1 µg/mL (≈ 10.2 µM). Still for that read-out and setting: the same measure for `CC(=O)c1ccc(OCCCCCCCc2cc(C)no2)cc1` [Example 31, 5-[7-(4-Acetylphenoxy)heptyl]-3-methylisoxazole]: 1.6 µg/mL (≈ 5.07 µM); for `CCC(=O)c1ccc(OCCCCCCCc2cc(C)no2)cc1` [Example 32, 5-[7-(4-Propionylphenoxy)heptyl]-3-methylisoxazole]: 1.7 µg/mL (≈ 5.16 µM); for `Cc1cc(CCCCCCCOc2ccc(C(=O)NN)cc2)on1` [Example 33, 5-[7-(4-Hydrazinocarbonylphenoxy)heptyl]-3-methylisoxazole]: 0.64 µg/mL (≈ 1.93 µM). For the compound `Cc1cc(CCCCCCCOc2ccc(C(N)=O)cc2)on1` [Example 34, 5-[7-(4-Carbamylphenoxy)heptyl]-3-methylisoxazole], the “activity vs. rhinovirus Type 2 in vitro” value with rhinovirus Type 2 was “not active”. In the case of `Cc1cc(CCCCCCCOc2ccc(C(=O)N(C)C)cc2)on1` [Example 35(b), N,N-dimethyl-4-[7-(3-methyl-5-isoxazolyl)heptyloxy]benzamide], the MIC in the assay with polio-2 virus came out at 2.5 µg/mL (≈ 7.26 µM). In the case of `CCC(=NO)c1ccc(OCCCCCCCc2cc(C)no2)cc1` [Example 36, 5-[7-(4-Propionylphenoxy)heptyl]-3-methylisoxazole oxime], the MIC came out at 2.6 µg/mL (≈ 7.55 µM) in the assay with rhinovirus Type 2 and 0.2 µg/mL (≈ 0.581 µM) in the assay on polio-2 virus.

Take `Cc1cc(CCCCCCCOc2ccc([N+](=O)[O-])cc2)on1` [Example 37(b), 3-methyl-5-[7-(4-nitrophenoxy)heptyl]isoxazole]: in the assay on polio-2 virus, the MIC stood at 1.5 µg/mL (≈ 4.71 µM). As for `COc1ccc(OCCCCCCCc2cc(C)no2)c([N+](=O)[O-])c1` [Example 38, 3-Methyl-5-[7-(2-nitro-4-methoxyphenoxy)heptyl]isoxazole], the figures for the MIC in the assay on rhinovirus Type 2 and in the assay on polio-2 virus were 0.3 µg/mL (≈ 0.861 µM) and 0.17 µg/mL (≈ 0.488 µM), respectively. `Cc1cc(CCCCCCCc2ccc(C#N)cc2)on1` [Example 39(f), 5-[7-(4-Cyanophenyl)heptyl]-3-methylisoxazole]: the MIC in the assay with rhinovirus Type 2 was 11.2 µg/mL (≈ 39.7 µM).

With `COc1ccc(OCCCCCc2cc(C)on2)c(Cl)c1` [Example 41, 3-[5-(2-Chloro-4-methoxyphenoxy)pentyl]-5-methylisoxazole], the values for the MIC in the assay with rhinovirus Type 2 and in the assay with polio-2 virus were 0.7 µg/mL (≈ 2.26 µM) and 1.4 µg/mL (≈ 4.52 µM), respectively.
